# According to PubChem BioAssay (NCI):
# Where “and” joins values, the source holds several entries; their conditions need not be identical. Equal values may be shown once.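 Briefly, cells in 96-well plates were exposed to five compound concentrations for 48 h, and endpoints were estimated by linear interpolation. GI50 is the concentration that inhibits growth by half. TGI denotes the concentration required for complete inhibition of growth.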
# Experiments:
# Assay in all cases: NCI-60 cell line screen, 48 h
# DU-145 prostate = system: DU-145 prostate
# TK-10 renal = system: TK-10 renal
# SK-OV-3 ovarian = system: SK-OV-3 ovarian
# SK-MEL-2 melanoma = system: SK-MEL-2 melanoma
# OVCAR-5 ovarian = system: OVCAR-5 ovarian
# OVCAR-8 ovarian = system: OVCAR-8 ovarian
# SN12C renal = system: SN12C renal
# RXF 393 renal = system: RXF 393 renal
# UACC-257 melanoma = system: UACC-257 melanoma
# HCT-15 colon = system: HCT-15 colon
SMILES,GI50 (DU-145 prostate),TGI (DU-145 prostate),GI50 (TK-10 renal),TGI (TK-10 renal),GI50 (SK-OV-3 ovarian) [µM],TGI (SK-OV-3 ovarian) [µM],GI50 (SK-MEL-2 melanoma) [µM],TGI (SK-MEL-2 melanoma) [µM],GI50 (OVCAR-5 ovarian),TGI (OVCAR-5 ovarian),GI50 (OVCAR-8 ovarian),TGI (OVCAR-8 ovarian),GI50 (SN12C renal),TGI (SN12C renal),GI50 (RXF 393 renal),TGI (RXF 393 renal),GI50 (UACC-257 melanoma),TGI (UACC-257 melanoma),GI50 (HCT-15 colon),TGI (HCT-15 colon)
Nc1ncn([C@H]2C[C@H](OP(=O)(O)OC[C@H]3O[C@@H](n4cnc5c(=O)[nH]c(N)nc54)C[C@@H]3O)[C@@H](CO)O2)c(=O)n1,> 100 µM,> 100 µM,> 100 µM,> 100 µM,> 100,> 100,> 100,> 100,> 100 µM,> 100 µM,26.6 µM,> 100 µM,51.4 µM,> 100 µM,12.2 µM,> 100 µM,> 100 µM,> 100 µM,–,–
NC(N)=N/N=C/c1c(-c2cccnc2)nc2sc(Cl)cn12,–,–,15.4 µM,29.3 µM,–,–,42.8,> 100,12.7 µM,25.3 µM,16.5 µM,38.7 µM,–,–,17.2 µM,36.7 µM,20.4 µM,40.5 µM,14.9 µM,28.1 µM
COc1cc(CCNC(=O)OC(C)(C)C)c2c(c1OC)SSSSS2,–,–,2.63 µM,5.5 µM,2.8,6.05,2.45,5.68,3.14 µM,9.23 µM,3.53 µM,11.7 µM,3.74 µM,15.8 µM,–,–,2.93 µM,5.48 µM,2.45 µM,5.78 µM
O=C(O)c1c2c(cc3c(=O)cc(-c4ccccc4)oc13)CCCC2,–,–,–,> 100 µM,–,> 100,–,> 100,–,> 100 µM,–,> 100 µM,–,> 100 µM,–,–,–,> 100 µM,–,> 100 µM
CC[PH+](CC)CC.CC[PH+](CC)CC.[Au],–,–,19.9 µM,35.7 µM,20.9,35.2,2.73,15.8,25.8 µM,41.5 µM,17.9 µM,38.1 µM,16.1 µM,31.4 µM,–,–,11.4 µM,24.4 µM,6.24 µM,25.7 µM
CC(=O)OCC1OC(n2ncc(=O)[nH]c2=O)C(OC(C)=O)C1OC(C)=O (stereo not given),–,> 100 µM,–,> 100 µM,–,> 100,–,–,–,> 100 µM,–,> 100 µM,–,> 100 µM,–,> 100 µM,–,–,–,> 100 µM
NC(=O)c1cc(Br)ccc1NC(=O)/C=C/c1ccccc1,2.3 µM,> 100 µM,5.93 µM,39.3 µM,3.68,> 23.6,–,–,10.3 µM,> 100 µM,14.1 µM,> 100 µM,4.9 µM,> 100 µM,1.15 µM,5.9 µM,24.9 µM,> 100 µM,1.38 µM,> 100 µM
CN1CCN(CCCN2c3ccccc3Sc3ccc(Cl)cc32)CC1,6.53 µM and 50.9 µM,13.5 µM and 94.6 µM,7.18 µM and 51.8 µM,14.1 µM and 89 µM,6.93,13.8,40.9,59.5,7.09 µM and 43.1 µM,14 µM and 62.9 µM,7.39 µM and 42.8 µM,14.8 µM,5.83 µM and 56.8 µM,12.8 µM,–,–,–,–,5.12 µM and 48 µM,11.5 µM and 77.8 µM
O=C1CC(CC(OCc2ccccc2)C(OCc2ccccc2)C(COCc2ccccc2)OCc2ccccc2)CC(=O)N1 (stereo not given),> 100 µM and 27.1 µM,> 100 µM,–,> 100 µM,–,–,–,–,> 100 µM and 24.9 µM,> 100 µM and 80.8 µM,> 100 µM and 13.7 µM,> 100 µM and 48.8 µM,> 100 µM and 18.6 µM,> 100 µM and 54.1 µM,24.5 µM and 2.72 µM,> 100 µM and 15 µM,> 100 µM and 16.3 µM,> 100 µM and 36.4 µM,–,> 100 µM and 47.2 µM
CC(C)=NNC(=S)NC12CC3CC(CC(C3)C1)C2,–,–,–,> 100 µM,–,> 100,–,> 100,–,> 100 µM,–,> 100 µM,–,> 100 µM,–,> 100 µM,–,> 100 µM,–,> 100 µM
Cc1ccc(C(=O)NCCN(C)C)c2nc3ccccc3cc12,–,–,–,12.2 µM,–,> 100,–,> 100,–,8.71 µM,–,7.99 µM,–,10.2 µM,–,3.29 µM,–,6.01 µM,–,6.5 µM
O=C1C(=O)N(c2ccc(Cl)cc2)C(=O)C(=Nc2cccc3c(=O)[nH][nH]c(=O)c23)C1c1nc2ccccc2o1 (stereo not given),–,–,–,> 100 µM,–,> 100,–,> 100,–,> 100 µM,–,> 100 µM,–,> 100 µM,–,–,–,> 100 µM,–,> 100 µM
C=CC(=O)N1CC[C@H](n2nc(C#Cc3cc(OC)cc(OC)c3)c3c(N)ncnc32)C1,7.56 µM,> 100 µM,4.03 µM,> 100 µM,–,–,8.49,52.1,62.3 µM,> 100 µM,8.36 µM,> 100 µM,4.43 µM,> 100 µM,1.06 µM,4.48 µM,10.8 µM,> 100 µM,5.53 µM,> 100 µM
O=S(=O)(NCCCNc1cc(-c2cn(-c3ccccc3)nc2-c2cccc(O)c2)ccn1)c1ccc(Br)cc1,2.45 µM,8.08 µM,3.35 µM,10.2 µM,2.76,9.3,1.95,3.84,2.12 µM,5.55 µM,2.45 µM,9.29 µM,2.75 µM,9.8 µM,1.09 µM,3.5 µM,–,–,1.32 µM,3.51 µM
Cc1ccc(S(=O)(=O)OCCOCCOCCOCCOCCOS(=O)(=O)c2ccc(C)cc2)cc1,–,–,–,> 100 µM,–,> 100,–,> 100,–,> 100 µM,–,88 µM,–,> 100 µM,–,> 100 µM,–,77.8 µM,–,> 100 µM
COc1ccc2c(c1)C(c1cc(OC)c3c(c1)OCO3)C1=C(COC1=O)N2 (stereo not given),0.397 µM,3.16 µM,–,> 77.2 µM,0.305,7.36,0.347,> 44.8,0.629 µM,> 100 µM,0.504 µM,> 40.7 µM,0.684 µM,> 100 µM,–,–,–,> 100 µM,0.472 µM,> 65.1 µM
